{
  "source": "patent US20100267561A1",
  "about": "“HERBICIDAL PYRIDAZINONE DERIVATIVES” (priority 2007, published 2010)",
  "assay_type_in_all_cases": "in vivo",
  "key": {"[1]": {"test_system": "large crabgrass (Digitaria sanguinalis)", "assay": "Test B pre-/postemergence plant response", "settings": "for Crabgrass, Large plant response rating: 8 g ai/ha", "method_in_brief": "(§1)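 Seeds were sown and sprayed preemergence, while plants at 2 to 18 cm (1- to 4-leaf stage) got postemergence sprays. Compounds were formulated in a non-phytotoxic solvent mixture with surfactant. After 13 to 15 days in a greenhouse, injury was rated visually against untreated controls, 0 (no effect) to 100 (complete control).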"}, "[2]": {"test_system": "woolly cupgrass (Eriochloa villosa)", "assay": "Test B pre-/postemergence plant response", "settings": "for Cupgrass, Woolly plant response rating: 8 g ai/ha", "method_in_brief": "as §1"}, "[3]": {"test_system": "Italian ryegrass (Lolium multiflorum)", "assay": "Test C pre-/postemergence plant response", "settings": "Preemergence", "method_in_brief": "(§2)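 Application timings covered preemergence and postemergence (1- to 4-leaf plants, 2 to 18 cm), using a non-phytotoxic solvent mixture that included a surfactant. Controlled-environment holding lasted 15 to 25 days before visual scoring, where 100 denotes complete control and 0 no effect.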"}, "[4]": {"test_system": "annual bluegrass (Poa annua)", "assay": "Test C pre-/postemergence plant response", "settings": "Preemergence", "method_in_brief": "as §2"}, "[5]": {"test_system": "blackgrass (Alopecurus myosuroides)", "assay": "Test C pre-/postemergence plant response", "settings": "Preemergence", "method_in_brief": "as §2"}, "[6]": {"test_system": "canarygrass (Phalaris minor)", "assay": "Test C pre-/postemergence plant response", "settings": "Preemergence", "method_in_brief": "as §2"}, "[7]": {"test_system": "downy bromegrass (Bromus tectorum)", "assay": "Test C pre-/postemergence plant response", "settings": "Preemergence", "method_in_brief": "as §2"}, "[8]": {"test_system": "green foxtail (Setaria viridis)", "assay": "Test C pre-/postemergence plant response", "settings": "Preemergence", "method_in_brief": "as §2"}, "[9]": {"test_system": "pigweed (Amaranthus retroflexus)", "assay": "Test C pre-/postemergence plant response", "settings": "Preemergence", "method_in_brief": "as §2"}, "[10]": {"test_system": "spring barley (Hordeum vulgare)", "assay": "Test C pre-/postemergence plant response", "settings": "Preemergence", "method_in_brief": "as §2"}, "[11]": {"test_system": "wild mustard (Sinapis arvensis)", "assay": "Test C pre-/postemergence plant response", "settings": "Preemergence", "method_in_brief": "as §2"}, "[12]": {"test_system": "wild oat (Avena fatua)", "assay": "Test C pre-/postemergence plant response", "settings": "Preemergence", "method_in_brief": "as §2"}, "[13]": {"test_system": "winter wheat (Triticum aestivum)", "assay": "Test C pre-/postemergence plant response", "settings": "Preemergence", "method_in_brief": "as §2"}, "[14]": {"settings": "Postemergence, 16 g ai/ha, scale 0 to 100"}, "[15]": {"settings": "Postemergence, 31 g ai/ha, scale 0 to 100, 0 no effect, 100 complete control"}, "[16]": {"settings": "Postemergence, 62 g ai/ha, scale 0 to 100, 0 no effect, 100 complete control"}, "[17]": {"settings": "Preemergence, 16 g ai/ha, scale 0 to 100 (0 no effect, 100 complete control)"}, "[18]": {"settings": "Preemergence, 31 g ai/ha, 0 to 100 scale, 0 no effect, 100 complete control"}, "[19]": {"settings": "Preemergence, 62 g ai/ha, scale 0 to 100"}, "[20]": {"settings": "8 g ai/ha, scale 0 to 100 (0 no effect, 100 complete control)"}, "[21]": {"settings": "16 g ai/ha, scale 0 to 100 (0 no effect, 100 complete control)"}, "[22]": {"settings": "31 g ai/ha, scale 0 to 100 (0 no effect, 100 complete control)"}, "[23]": {"settings": "62 g ai/ha, scale 0 to 100, 0 no effect, 100 complete control"}},
  "data": [
    {"smiles": "Cn1ncc(O)c(-c2nn(-c3ccc(Cl)cc3)cc2Cl)c1=O", "note": "[Compound 28]", "values": [
      {"measurement": "Crabgrass, Large plant response rating", "setting": "[1]; postemergence, 0-100 scale", "value": 60},
      {"measurement": "Plant response rating, Crabgrass, Large", "setting": "[1]; [14]", "value": 75},
      {"measurement": "Plant response rating, Crabgrass, Large", "setting": "[1]; [15]", "value": 80},
      {"measurement": "Plant response rating, Crabgrass, Large", "setting": "[1]; [16]", "value": 98},
      {"measurement": "Plant response rating, Crabgrass, Large", "setting": "[1]; [17]", "value": 98},
      {"measurement": "Plant response rating, Crabgrass, Large", "setting": "[1]; [18]", "value": 100},
      {"measurement": "Plant response rating, Crabgrass, Large", "setting": "[1]; [19]", "value": 100},
      {"measurement": "Crabgrass, Large plant response rating", "setting": "[1]; Preemergence, scale 0 to 100", "value": 65},
      {"measurement": "Cupgrass, Woolly plant response rating", "setting": "[2]; postemergence, 0-100 scale", "value": 50},
      {"measurement": "Plant response rating, Cupgrass, Woolly", "setting": "[2]; [14]", "value": 55},
      {"measurement": "Plant response rating, Cupgrass, Woolly", "setting": "[2]; [15]", "value": 95},
      {"measurement": "Plant response rating, Cupgrass, Woolly", "setting": "[2]; [16]", "value": 95},
      {"measurement": "Plant response rating, Cupgrass, Woolly", "setting": "[2]; [17]", "value": 30},
      {"measurement": "Plant response rating, Cupgrass, Woolly", "setting": "[2]; [18]", "value": 98},
      {"measurement": "Plant response rating, Cupgrass, Woolly", "setting": "[2]; [19]", "value": 98},
      {"measurement": "Cupgrass, Woolly plant response rating", "setting": "[2]; Preemergence, scale 0 to 100", "value": 0},
      {"measurement": "Plant response rating, Ryegrass, Italian", "setting": "[3]; [20]", "value": 0},
      {"measurement": "Plant response rating, Ryegrass, Italian", "setting": "[3]; [21]", "value": 15},
      {"measurement": "Plant response rating, Ryegrass, Italian", "setting": "[3]; [22]", "value": 90},
      {"measurement": "Plant response rating, Ryegrass, Italian", "setting": "[3]; [23]", "value": 95},
      {"measurement": "Plant response rating, Bluegrass", "setting": "[4]; [20]", "value": 0},
      {"measurement": "Plant response rating, Bluegrass", "setting": "[4]; [21]", "value": 0},
      {"measurement": "Plant response rating, Bluegrass", "setting": "[4]; [23]", "value": 50},
      {"measurement": "Plant response rating, Blackgrass", "setting": "[5]; [20]", "value": 0},
      {"measurement": "Plant response rating, Blackgrass", "setting": "[5]; [21]", "value": 5},
      {"measurement": "Plant response rating, Blackgrass", "setting": "[5]; [22]", "value": 15},
      {"measurement": "Plant response rating, Blackgrass", "setting": "[5]; [23]", "value": 85},
      {"measurement": "Plant response rating, Canarygrass", "setting": "[6]; [20]", "value": 0},
      {"measurement": "Plant response rating, Canarygrass", "setting": "[6]; [21]", "value": 0},
      {"measurement": "Plant response rating, Canarygrass", "setting": "[6]; [22]", "value": 10},
      {"measurement": "Plant response rating, Canarygrass", "setting": "[6]; [23]", "value": 90},
      {"measurement": "Plant response rating, Bromegrass, Downy", "setting": "[7]; [20]", "value": 0},
      {"measurement": "Plant response rating, Bromegrass, Downy", "setting": "[7]; [21]", "value": 0},
      {"measurement": "Plant response rating, Bromegrass, Downy", "setting": "[7]; [22]", "value": 20},
      {"measurement": "Plant response rating, Bromegrass, Downy", "setting": "[7]; [23]", "value": 75},
      {"measurement": "Plant response rating, Foxtail, Green", "setting": "[8]; [20]", "value": 0},
      {"measurement": "Plant response rating, Foxtail, Green", "setting": "[8]; [21]", "value": 20},
      {"measurement": "Plant response rating, Foxtail, Green", "setting": "[8]; [22]", "value": 100},
      {"measurement": "Plant response rating, Foxtail, Green", "setting": "[8]; [23]", "value": 100},
      {"measurement": "Plant response rating, Pigweed", "setting": "[9]; [20]", "value": 0},
      {"measurement": "Plant response rating, Pigweed", "setting": "[9]; [21]", "value": 0},
      {"measurement": "Plant response rating, Pigweed", "setting": "[9]; [22]", "value": 0},
      {"measurement": "Plant response rating, Pigweed", "setting": "[9]; [23]", "value": 0},
      {"measurement": "Plant response rating, Barley, Spring", "setting": "[10]; [20]", "value": 0},
      {"measurement": "Plant response rating, Barley, Spring", "setting": "[10]; [21]", "value": 15},
      {"measurement": "Plant response rating, Barley, Spring", "setting": "[10]; [22]", "value": 15},
      {"measurement": "Plant response rating, Barley, Spring", "setting": "[10]; [23]", "value": 25},
      {"measurement": "Plant response rating, Mustard, Wild", "setting": "[11]; [20]", "value": 0},
      {"measurement": "Plant response rating, Mustard, Wild", "setting": "[11]; [21]", "value": 0},
      {"measurement": "Plant response rating, Mustard, Wild", "setting": "[11]; [22]", "value": 0},
      {"measurement": "Plant response rating, Mustard, Wild", "setting": "[11]; [23]", "value": 0},
      {"measurement": "Plant response rating, Oat, Wild", "setting": "[12]; [20]", "value": 0},
      {"measurement": "Plant response rating, Oat, Wild", "setting": "[12]; [21]", "value": 0},
      {"measurement": "Plant response rating, Oat, Wild", "setting": "[12]; [22]", "value": 20},
      {"measurement": "Plant response rating, Oat, Wild", "setting": "[12]; [23]", "value": 75},
      {"measurement": "Plant response rating, Wheat, Winter", "setting": "[13]; [20]", "value": 0},
      {"measurement": "Plant response rating, Wheat, Winter", "setting": "[13]; [21]", "value": 10},
      {"measurement": "Plant response rating, Wheat, Winter", "setting": "[13]; [22]", "value": 30},
      {"measurement": "Plant response rating, Wheat, Winter", "setting": "[13]; [23]", "value": 60}
    ]}
  ]
}
